Patent US9499519B2, “Fused pyrimidine compounds and use thereof” (Medivation Technologies, Inc., priority 2012, dated 2016)
Read-outs that look alike come from different tables or passages of the source.

Tests used:
[1] = molecular target: T1, IGF-1R (Homo sapiens, UniProt P08069); test: In vitro IGF-1R enzymatic assay (ADP-Glo kinase assay); type: biochemical; conditions: activated IGF-1R, 30 nM; for % Inh @ 30 nM (N1) / % Inh @ 30 nM (N2): 0.03 µM
T1 construct: purchased Millipore 14-802
Description: (§1) IC50 values of the compounds of the invention against IGF-1R and IR were measured in vitro using an ADP-Glo kinase assay Kit (Promega). […] Kinase reactions in both assays were conducted at 30° C. for 20 min with increasing concentrations of compounds of the invention.
Additional compounds of the invention were screened against activated IGF-1R.

[2] = test system: Akt phosphorylation induced by IGF-1R; test: Western blot analysis of Akt phosphorylation induced by IGF-1 in HT-29 cells; type: cell-based, Human; conditions: for Levels of phosphorylated AKT in treated cells (pAKT/actin): HT-29 cells, IGF-1; for p-AKT relative to levels with 0.1 nM compound: Table B2 lower part; for Normalized phosphorylated AKT (relative to actin) levels relative to 0.1 nM compound treatment: Table B2 upper part
How it was run: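 HT-29 cells grown 24 h in DME/F12 with 10% FBS, serum-starved 24 h, then exposed 2 h to compound at 0.1, 1, 10 or 100; controls received DMSO or 10 ng/mL IGF-1. Lysate soluble fractions quantified by BCA before western blotting for phospho-Akt.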

[3] = molecular target: T2, IR (Homo sapiens, UniProt P06213); test: In vitro IR enzymatic assay (ADP-Glo kinase assay); type: biochemical; conditions: activated IR, 30 nM
T2 construct: purchased Millipore 14-803
T2 sequence (P06213 28-1382): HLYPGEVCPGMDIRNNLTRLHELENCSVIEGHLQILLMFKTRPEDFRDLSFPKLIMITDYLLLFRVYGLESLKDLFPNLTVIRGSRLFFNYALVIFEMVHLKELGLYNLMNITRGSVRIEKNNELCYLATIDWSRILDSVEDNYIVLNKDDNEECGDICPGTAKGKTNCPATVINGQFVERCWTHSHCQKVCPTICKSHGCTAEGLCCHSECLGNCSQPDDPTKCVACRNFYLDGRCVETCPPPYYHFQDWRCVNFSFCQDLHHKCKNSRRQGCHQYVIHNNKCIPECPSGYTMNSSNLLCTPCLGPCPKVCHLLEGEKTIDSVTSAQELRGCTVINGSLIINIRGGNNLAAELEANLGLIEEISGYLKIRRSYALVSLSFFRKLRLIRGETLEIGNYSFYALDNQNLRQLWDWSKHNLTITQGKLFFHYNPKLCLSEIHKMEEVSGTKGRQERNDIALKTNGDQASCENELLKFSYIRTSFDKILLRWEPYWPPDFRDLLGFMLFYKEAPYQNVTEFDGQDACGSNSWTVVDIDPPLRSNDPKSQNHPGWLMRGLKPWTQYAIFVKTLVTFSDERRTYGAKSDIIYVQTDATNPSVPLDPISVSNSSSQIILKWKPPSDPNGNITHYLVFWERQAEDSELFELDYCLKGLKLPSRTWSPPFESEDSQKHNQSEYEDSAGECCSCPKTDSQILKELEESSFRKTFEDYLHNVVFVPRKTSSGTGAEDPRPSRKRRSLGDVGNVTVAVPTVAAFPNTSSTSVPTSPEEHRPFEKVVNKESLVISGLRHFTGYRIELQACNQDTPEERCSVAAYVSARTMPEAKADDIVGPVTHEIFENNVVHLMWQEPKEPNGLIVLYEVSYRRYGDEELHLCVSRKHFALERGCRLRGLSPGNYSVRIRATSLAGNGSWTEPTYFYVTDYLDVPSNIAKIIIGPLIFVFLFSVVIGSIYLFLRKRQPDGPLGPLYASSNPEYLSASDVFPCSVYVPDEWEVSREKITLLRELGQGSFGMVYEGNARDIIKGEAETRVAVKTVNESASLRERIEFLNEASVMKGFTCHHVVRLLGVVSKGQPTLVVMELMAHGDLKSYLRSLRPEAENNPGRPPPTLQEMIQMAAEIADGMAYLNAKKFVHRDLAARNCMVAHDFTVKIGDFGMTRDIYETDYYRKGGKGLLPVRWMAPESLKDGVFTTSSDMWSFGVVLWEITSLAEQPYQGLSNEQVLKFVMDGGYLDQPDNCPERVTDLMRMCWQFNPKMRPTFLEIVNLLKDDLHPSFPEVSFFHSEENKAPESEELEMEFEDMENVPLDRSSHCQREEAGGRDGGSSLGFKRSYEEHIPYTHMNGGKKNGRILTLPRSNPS
Description: as §1
Additional compounds of the invention were screened against activated IR.

[4] = N1, read-out: % Inh @ 30 nM (N1)
[5] = N2, read-out: % Inh @ 30 nM (N2)
[6] = average, read-out: % Inh @ 30 nM Avg

T1 sequence (P08069 31-1367): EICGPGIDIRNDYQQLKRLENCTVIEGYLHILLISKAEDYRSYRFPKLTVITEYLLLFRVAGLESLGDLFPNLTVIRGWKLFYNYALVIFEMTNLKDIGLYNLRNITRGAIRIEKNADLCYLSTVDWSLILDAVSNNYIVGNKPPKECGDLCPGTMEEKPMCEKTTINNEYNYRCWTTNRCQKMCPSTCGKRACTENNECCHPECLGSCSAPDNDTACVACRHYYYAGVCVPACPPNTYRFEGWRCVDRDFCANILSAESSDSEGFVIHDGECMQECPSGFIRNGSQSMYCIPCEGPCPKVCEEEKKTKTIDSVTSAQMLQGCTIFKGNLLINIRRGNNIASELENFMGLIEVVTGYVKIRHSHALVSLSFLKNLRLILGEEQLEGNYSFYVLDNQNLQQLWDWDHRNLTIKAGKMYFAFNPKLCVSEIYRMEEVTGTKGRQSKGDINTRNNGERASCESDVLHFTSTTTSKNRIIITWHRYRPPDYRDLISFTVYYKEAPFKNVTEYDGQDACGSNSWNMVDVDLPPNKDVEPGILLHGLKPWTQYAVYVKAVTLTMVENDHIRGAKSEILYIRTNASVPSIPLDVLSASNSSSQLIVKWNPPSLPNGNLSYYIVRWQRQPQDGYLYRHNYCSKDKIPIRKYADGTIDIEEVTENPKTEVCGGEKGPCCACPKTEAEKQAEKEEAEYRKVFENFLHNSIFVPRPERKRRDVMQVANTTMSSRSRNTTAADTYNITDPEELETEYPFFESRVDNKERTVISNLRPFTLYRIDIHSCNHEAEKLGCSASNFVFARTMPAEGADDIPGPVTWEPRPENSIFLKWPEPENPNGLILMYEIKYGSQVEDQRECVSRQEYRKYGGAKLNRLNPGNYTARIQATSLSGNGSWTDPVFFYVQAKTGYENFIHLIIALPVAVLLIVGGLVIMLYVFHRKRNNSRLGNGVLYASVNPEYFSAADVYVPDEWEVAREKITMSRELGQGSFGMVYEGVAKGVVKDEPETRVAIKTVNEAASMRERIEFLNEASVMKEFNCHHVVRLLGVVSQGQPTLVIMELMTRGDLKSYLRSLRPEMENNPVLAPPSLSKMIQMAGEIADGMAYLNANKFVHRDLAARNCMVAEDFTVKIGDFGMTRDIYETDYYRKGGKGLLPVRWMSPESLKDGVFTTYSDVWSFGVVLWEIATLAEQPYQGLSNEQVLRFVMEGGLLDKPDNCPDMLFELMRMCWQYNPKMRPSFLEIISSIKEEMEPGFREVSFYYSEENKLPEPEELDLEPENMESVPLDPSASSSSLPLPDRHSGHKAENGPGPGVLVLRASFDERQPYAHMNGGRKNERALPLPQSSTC

| Compound | % Inh @ 30 nM (N1) ([1]; N1) [%] | % Inh @ 30 nM (N2) ([1]; N2) [%] | % Inh @ 30 nM Avg ([1]; average) [%] | Levels of phosphorylated AKT in treated cells (pAKT/actin) ([2]; 0.1 nM compound) | p-AKT relative to levels with 0.1 nM compound ([2]; 0.1 nM) | Normalized phosphorylated AKT (relative to actin) levels relative to 0.1 nM compound treatment ([2]; 0.1 nM) | Levels of phosphorylated AKT in treated cells (pAKT/actin) ([2]; 1 nM compound) | p-AKT relative to levels with 0.1 nM compound ([2]; 1 nM) | Normalized phosphorylated AKT (relative to actin) levels relative to 0.1 nM compound treatment ([2]; 1 nM) | Levels of phosphorylated AKT in treated cells (pAKT/actin) ([2]; 10 nM compound) | p-AKT relative to levels with 0.1 nM compound ([2]; 10 nM) | Normalized phosphorylated AKT (relative to actin) levels relative to 0.1 nM compound treatment ([2]; 10 nM) | Levels of phosphorylated AKT in treated cells (pAKT/actin) ([2]; 100 nM compound) | p-AKT relative to levels with 0.1 nM compound ([2]; 100 nM) | Normalized phosphorylated AKT (relative to actin) levels relative to 0.1 nM compound treatment ([2]; 100 nM) | % Inh @ 30 nM (N2) ([3]; N2, 0.03 µM) [%] | % Inh @ 30 nM Avg ([3]; average) [%] | inhibition at 0.03 µM [1, 4] [%] | inhibition at 0.03 µM [1, 5] [%] | inhibition at 0.03 µM [1, 6] [%] | also measured |
| --- | --- | --- | --- | --- | --- | --- | --- | --- | --- | --- | --- | --- | --- | --- | --- | --- | --- | --- | --- | --- | --- |
| O=C(Nc1ccc(F)nc1)C1CCCCN1c1nc2c(c(Nc3cc(C4CCCC4)[nH]n3)n1)CCC2 (single isomer, unassigned) [Compound 17b, 1-(4-(5-cyclopentyl-1H-pyrazol-3-ylamino)-6,7-dihydro-5H-cyclopenta[d]pyrimidin-2-yl)-N-(6-fluoropyridin-3-yl)piperidine-2-carboxamide] | 21 | 23 | 22 | 0.83 | 1.0 | 1.0 | 0.99 | 1.2 | 1.2 | 0.95 | 1.1 | 1.1 | 1.08 | 1.3 | 1.3 | 10 | 6 | – | – | – | % Inh @ 30 nM (N1) ([3]; N1): 2% |
| CC(C)c1cc(Nc2nc(N3CCCCC3C(=O)Nc3ccc(F)nc3)nc3c2CCC3)n[nH]1 (single isomer, unassigned) [Compound 16b, N-(6-fluoropyridin-3-yl)-1-(4-(5-isopropyl-1H-pyrazol-3-ylamino)-6,7-dihydro-5H-cyclopenta[d]pyrimidin-2-yl)piperidine-2-carboxamide] | 40 | 40 | 40 | 0.53 | 1.0 | 1.0 | 0.51 | 1.0 | 1.0 | 0.15 | 0.3 | 0.3 | 0.01 | 0.0 | 0.0 | 23 | 25 | – | – | – | % Inh @ 30 nM (N1) ([3]; N1, 0.03 µM): 26% |
| CC(C)c1cc(Nc2nc(N3CCCC3C(=O)Nc3ccc(F)nc3)nc3c2CCCC3)n[nH]1 (single isomer, unassigned) [Compound 13a, N-(6-fluoropyridin-3-yl)-1-(4-(5-isopropyl-1H-pyrazol-3-ylamino)-5,6,7,8-tetrahydroquinazolin-2-yl)pyrrolidine-2-carboxamide] | – | – | – | 0.51 | 1.0 | 1.0 | 0.54 | 1.1 | 1.1 | 0.45 | 0.9 | 0.9 | 0.80 | 1.6 | 1.6 | – | – | 10 | 34 | 22 | inhibition at 0.03 µM [3, 4]: 4%; inhibition at 0.03 µM [3, 5]: -1%; inhibition at 0.03 µM [3, 6]: 2% |
| O=C(Nc1ccc(F)nc1)C1CCCN1c1nc2c(c(Nc3cc(C4CC4)[nH]n3)n1)CCC2 (single isomer, unassigned) [Compound 2a, 1-(4-(5-cyclopropyl-1H-pyrazol-3-ylamino)-6,7-dihydro-5H-cyclopenta[d]pyrimidin-2-yl)-N-(6-fluoropyridin-3-yl)pyrrolidine-2-carboxamide] | – | – | – | 1.70 | 1.0 | 1.0 | 1.78 | 1.0 | 1.0 | 1.81 | 1.1 | 1.1 | 1.72 | 1.0 | 1.0 | – | – | -12 | 18 | 3 | inhibition at 0.03 µM [3, 4]: 0%; inhibition at 0.03 µM [3, 5]: 10%; inhibition at 0.03 µM [3, 6]: 5% |
| O=C(Nc1ccc(F)nc1)C1C(O)CCN1c1nc2c(c(Nc3cc(C4CC4)[nH]n3)n1)CCC2 (single isomer, unassigned) [Compound 11b, 1-(4-(5-cyclopropyl-1H-pyrazol-3-ylamino)-6,7-dihydro-5H-cyclopenta[d]pyrimidin-2-yl)-N-(6-fluoropyridin-3-yl)-3-hydroxypyrrolidine-2-carboxamide] | 22 | 11 | 17 | 1.55 | 1.0 | 1.0 | 1.76 | 1.1 | 1.1 | 1.43 | 0.9 | 0.9 | 0.33 | 0.2 | 0.2 | 9 | 3 | – | – | – | % Inh @ 30 nM (N1) ([3]; N1, 0.03 µM): −2% |
| CC(C)c1cc(Nc2nc(N3CCCC3C(=O)Nc3ccc(F)nc3)nc3c2CCC3)on1 (racemic) [Compound 12b, N-(6-fluoropyridin-3-yl)-1-(4-(3-isopropylisoxazol-5-ylamino)-6,7-dihydro-5H-cyclopenta[d]pyrimidin-2-yl)pyrrolidine-2-carboxamide] | – | – | – | 3.66 | 1.0 | 1.0 | 3.56 | 1.0 | 1.0 | 4.32 | 1.2 | 1.2 | 2.29 | 0.6 | 0.6 | – | – | 13 | 34 | 24 | inhibition at 0.03 µM [3, 4]: -14%; inhibition at 0.03 µM [3, 5]: -10%; inhibition at 0.03 µM [3, 6]: -12% |
